Source: the NIST ThermoML archive (doi:10.1021/je900596d)
± gives the expanded uncertainty stated by the source.

Conditions: 343.18 K, Liquid, Vibrating tube method

FC(F)=C(F)C(F)(F)F [hexafluoropropene]
Conditions	mass density [kg/m3]
2323.3 kPa	1027.29 ± 1.1
2331.8 kPa	1027.71 ± 1.1
2340.3 kPa	1028.3 ± 1.1
2348.6 kPa	1028.71 ± 1.1
2357.9 kPa	1029.39 ± 1.1
2367.9 kPa	1029.94 ± 1.1
2376.2 kPa	1030.38 ± 1.1
2386.7 kPa	1030.85 ± 1.1
2396.9 kPa	1031.35 ± 1.1
2403.7 kPa	1031.5 ± 1.1
2413.7 kPa	1032.28 ± 1.1
2426.4 kPa	1032.67 ± 1.2
2437.3 kPa	1033.33 ± 1.2
2447 kPa	1034.04 ± 1.2
2457.9 kPa	1034.52 ± 1.2
2464 kPa	1034.92 ± 1.2
2470.6 kPa	1035.47 ± 1.2
2480.5 kPa	1035.86 ± 1.2
2486.7 kPa	1036.28 ± 1.1
2497.1 kPa	1037.07 ± 1.1
2503.3 kPa	1037.46 ± 1.1
2522.8 kPa	1038.69 ± 1.1
2540.4 kPa	1039.48 ± 1.1
2556.8 kPa	1040.31 ± 1.1
2578.1 kPa	1041.52 ± 1.1
2596.9 kPa	1042.44 ± 1.1
2616.9 kPa	1043.45 ± 1.1
2632.9 kPa	1044.34 ± 1.1
2650.6 kPa	1045.42 ± 1.1
2671.6 kPa	1046.57 ± 1.1
2693 kPa	1047.89 ± 1.1
2710.6 kPa	1048.77 ± 1.1
2730.2 kPa	1049.48 ± 1.1
2747.6 kPa	1050.19 ± 1.1
2764.4 kPa	1050.73 ± 1.1
2782.1 kPa	1051.54 ± 1.1
2799.6 kPa	1052.3 ± 1.1
2815.7 kPa	1053.03 ± 1.1
2831.9 kPa	1053.99 ± 1.1
2852.2 kPa	1055 ± 1.1
2887.1 kPa	1056.99 ± 1.1
2909.8 kPa	1058.07 ± 1.1
2930.4 kPa	1058.89 ± 1.1
2950.3 kPa	1059.55 ± 1.1
2967.4 kPa	1060.2 ± 1.1
2986 kPa	1061.16 ± 1.1
3013.7 kPa	1062.17 ± 1.1
3046.6 kPa	1063.75 ± 1.1
3078.2 kPa	1064.77 ± 1.1
3103.6 kPa	1065.88 ± 1.1
3134.8 kPa	1067.08 ± 1.1
3168.5 kPa	1068.48 ± 1.1
3201.9 kPa	1069.74 ± 1.1
3235.7 kPa	1071.04 ± 1.1
3266.7 kPa	1072.23 ± 1.1
3300.3 kPa	1073.66 ± 1.1
3332 kPa	1075.03 ± 1.1
3361.4 kPa	1076.36 ± 1.1
3394.9 kPa	1077.6 ± 1.1
3430.3 kPa	1078.63 ± 1.1
3463.3 kPa	1079.82 ± 1.1
3496.3 kPa	1081.01 ± 1.1
3518.3 kPa	1081.82 ± 1.2
3550.7 kPa	1083.01 ± 1.1
3586.6 kPa	1084.11 ± 1.2
3619.2 kPa	1085.32 ± 1.1
3651.4 kPa	1086.39 ± 1.2
3686 kPa	1087.66 ± 1.1
3728.2 kPa	1089.03 ± 1.1
3764.5 kPa	1090.25 ± 1.1
3805.5 kPa	1091.78 ± 1.1
3846.6 kPa	1092.95 ± 1.1
3882.5 kPa	1093.89 ± 1.1
3923.8 kPa	1095.4 ± 1.2
3956.8 kPa	1096.28 ± 1.1
3999.1 kPa	1097.44 ± 1.1
4049.2 kPa	1099.28 ± 1.1
4092.3 kPa	1100.59 ± 1.1
4134.3 kPa	1101.91 ± 1.1
4183.8 kPa	1102.89 ± 1.1
4226.9 kPa	1104.11 ± 1.1
4279.1 kPa	1105.63 ± 1.1
4326.3 kPa	1106.67 ± 1.1
4369.2 kPa	1107.87 ± 1.2
4410.8 kPa	1109.1 ± 1.2
4451.8 kPa	1110.42 ± 1.1
4504 kPa	1111.78 ± 1.1
4556.4 kPa	1112.8 ± 1.2
4599.1 kPa	1114.05 ± 1.2
4697.6 kPa	1116.51 ± 1.1
4742.5 kPa	1117.74 ± 1.2
4786.3 kPa	1118.99 ± 1.2
4833.9 kPa	1120.08 ± 1.1
4887.4 kPa	1121.18 ± 1.1
4933.1 kPa	1122.24 ± 1.1
4985.1 kPa	1123.76 ± 1.2
5029 kPa	1124.72 ± 1.2
5073.9 kPa	1125.85 ± 1.1
5132.4 kPa	1127.18 ± 1.2
5174 kPa	1128.12 ± 1.2
5238.1 kPa	1129.48 ± 1.2
5301.9 kPa	1130.82 ± 1.2
5346.6 kPa	1131.66 ± 1.2
5387.9 kPa	1132.67 ± 1.2
5429.7 kPa	1133.71 ± 1.2
5474 kPa	1134.83 ± 1.2
5517.7 kPa	1135.51 ± 1.2
5596.3 kPa	1137.23 ± 1.2
5658.9 kPa	1138.61 ± 1.2
5702.1 kPa	1139.38 ± 1.2
5743.1 kPa	1140.46 ± 1.2
5803.5 kPa	1141.76 ± 1.2
5846.3 kPa	1142.59 ± 1.2
5891.3 kPa	1143.58 ± 1.2
5933.5 kPa	1144.39 ± 1.2
5995 kPa	1145.68 ± 1.2
6036 kPa	1146.23 ± 1.2
6160 kPa	1148.79 ± 1.2
6218.2 kPa	1149.66 ± 1.2
6324.7 kPa	1151.65 ± 1.2
6365.2 kPa	1152.43 ± 1.2
6407.3 kPa	1153.32 ± 1.2
6470.4 kPa	1154.32 ± 1.2
6550 kPa	1155.81 ± 1.2
6660.8 kPa	1157.92 ± 1.2
6725.9 kPa	1159.01 ± 1.2
6839.7 kPa	1161.35 ± 1.2
6887 kPa	1162.02 ± 1.2
6930.3 kPa	1162.69 ± 1.2
6976.6 kPa	1163.25 ± 1.2
7038.7 kPa	1164.35 ± 1.2
7080.9 kPa	1165.18 ± 1.2
7123.3 kPa	1165.76 ± 1.2
